Experimental data reported in patent publication US20250223560A1, “NOX4 INHIBITOR COMPOSITIONS AND METHODS FOR REGENERATION OF DYSTROPHIC MUSCLE” (FULCRUM THERAPEUTICS, INC., priority 2022, published 2025).
Read-outs that look alike come from different tables or passages of the source.

Tests used:
[1] = system: Bone Marrow Derived Mesenchymal Stem Cells, human (BM-MSC); myofibroblast content; assay: Myofibroblast reduction phenotype in TGF-beta-1 fibrogenic differentiation culture (high-content imaging); assay type: cell-based
Experimental: (§1) Bone Marrow Derived Mesenchymal Stem Cells, human (BM-MSC, ATCC PCS-500-012) were cultured in medium composed of Mesenchymal Stem Cell Basal Medium foe Adipose, Umbilcal and Bone Marrow-derived MSCs (ATCC PCS-400030 and Mesenchymal Stem Cell Growth for Bone Marrow-derived MSCs (ATCC PCS-500-041). Cells were seeded at a density of 15,000 cells/well in a 96-well format.
(§2) To induce fibrogenic differentiation BM-MSCs were cultured in a medium composed by Dulbecco's Modified Eagle Medium, 2% horse serum (HS) (Sigma H1270) and 5-10 ng/ml TGF-beta-1 (PreproTech 100-21). Cells were cultured in basal media for 2 days before being switched to fibrogenic differentiation media for 5 days, after which they were taken down for downstream assays. Compound treatment was added when media was switched to fibrogenic differentiation media, cells were treated with 0.1% DMSO if not receiving compound.
(§3) Cells were fixed in 4% PFA for 10 min at RT. Fixed cells were washed three times in 1×PBS and incubated in permeabilization solution (0.5% Triton X-100 in 1×PBS) for 10 min. Unspecific binding were saturated by incubating samples in blocking solution (5% donkey serum in 1×PBS) for 1 h. The cells were incubated at RT for 1 hour with gentle shaking in the presence of primary antibody against, alpha-smooth muscle actin (1:1000, Sigma™ A5228). The cells were washed three times with 0.05% Tween-20 in 1×PBS and incubated, for 1 hour at RT, with host-specific secondary antibodies in addition to counterstaining for Alexa Fluor Plus 750 Phalloidin (1:2000, Invitrogen™, A30105) and DAPI (1:2000). Primary and secondary antibodies were diluted according to the manufacturer's recommendations in blocking solution+0.1% Triton X-100. Finally, the cells were washed three times with 0.05% Tween-20 in 1×PBS, washed twice with 1×PBS and stored at 4° C. Images were acquired on a Thermo Scientific™ CellInsight™ CX7LED high content analysis (HCA) imaging instrument using a 10× objective. Nine fields per well were captured for quantification.
Columbus™ software (version 2.9.1, Perkin Elmer®) was used for analysis of acquired images. A custom analysis pipeline was constructed to quantify the percentage of myofibroblasts within the well. First, nuclei were segmented using “Method B” and intensity and morphology properties were calculated using standard settings. Second, viable nuclei were identified by gating on nuclei intensity, area, and roundness of the segmented objects. Next, a region of interest was then defined around the selected viable nuclei by expanding the outer boarder by […]. STAR morphology and SER texture properties were calculated within the region of interest for the alpha-smooth muscle actin and phalloidin channels using the following parameters: profile width=4 px, scale=1 px, Kernel normalization. The calculated morphology and texture properties were used to train a linear classifier consisting of two classes, myofibroblasts and mesenchymal stem cells, by selecting >100 objects in each negative control (DMSO) and positive control (fibrogenic differentiation media) conditions. The linear classifier was then applied to the untrained test wells using a batch analysis to calculate the percentage of myofibroblasts within each image using a formula output (myofibroblasts:number of objects/viable nuclei:number of objects)*100. Results were averaged across the nine fields imaged per well.
The initial six NOX4 inhibitors were assessed in replicate experiments for both potency of myofibroblast reducing activity and an associated IC50 for the myofibroblast reduction phenotype was determined (Table 1).

[2] = as described; cited from earlier work
[3] = system: mesenchymal stem cells; assay: Phalloidin (F-actin) / alpha-SMA staining of treated mesenchymal stem cells; assay type: cell-based, human; settings: 1 μM
Experimental: as §1, §2, §3

## CN(C)c1cccc(-c2c3c(=O)n(-c4ccccc4Cl)[nH]c3cc(=O)n2C)c1 [FTX1620, Setanaxib]
[1]; Homo sapiens, BMMSC, first experiment, read-out: IC50 Phenotype (myofibroblast reduction)
  IC50: 77.3 nM
[1]; Homo sapiens, BMMSC, replicate experiment, read-out: IC50 Phenotype Replicate
  IC50: 126 nM
[1]; replicate experiment, read-out: IC50 Phenotype Replicate
  IC50: 126 nM
[1]; treated cells in culture
  reduction of myofibroblast content (concentration-response): reduced the myofibroblast content of treated cells in a dose-responsive manner
[2]
  oral bioavailability: orally bioavailable
[3]
  phalloidin (F-actin) staining: significant phalloidin staining
[3]; FIG. 15
  α-SMA immunofluorescence and phalloidin (F-actin) staining: exhibited both α-SMA immunofluorescence and phalloidin (F-actin) staining
